From patent publication US20240425814A1, “SALTS OF DIPEPTIDES AND THEIR USES IN CELL CULTURE” (Evonik Operations GmbH, priority 2021, published 2024) come the findings set out here.

Where a name gives a salt, the structure may show the parent alone. Read-outs that look alike come from different tables or passages of the source. Positions of bridges follow the written chain, without caps; N, C: chain ends. Residues, ends and D or L forms follow the SMILES beside them. Chains are numbered I, II in the order given.

The subject of one data set is CHO-K1 cells. As to the kind of experiment: In vitro cytotoxicity / viability assay (MTS) on CHO-K1 cells. It counts as cell-based, Chinese hamster. The settings on record: high concentration (tested at 1 and 10 mM), 24 h with dipeptide, samples adjusted to pH 7, vs control medium without (Lys-Cys)2. As to the method:
(§1) • The assay was performed with human bone marrow stromal cells, mesenchymal stem cells (MSC) or Chinese hamster ovary cells (subclone K1), respectively. In a first step, the cells were seeded in a transparent 96-well cell culture plate and incubated for 24 h in a CO2-Incubator (37° C., 5% CO2, 95% humidity) at a cell density of 10.000 cells/well and in a final volume of 100 μl/well. After the resting time of 24 hours the supernatants were discarded, and prepared dipeptide test compounds were added to the cells in a final volume of 100 μl/well. The control was rested in medium without dipeptide.
(§2) All samples were dissolved directly in associated cell culture medium. pH values of the samples were adjusted to pH 7 in advance, to exclude an influence on the cell viability due to a potentially lower pH value.
(§3) Different salt forms of (Lys-Cys)2 were tested in two different concentrations and each sample was tested in triplicates. […]
(§4) As a result of the reduction of MTS into a formazan product by metabolically active cells, an absorbance signal of formazan could be measured at a wavelength of 490 nm in a multiplate reader. […]
(§5) CHO-K1 as well as MSC cells were cultured for 24 hours before the addition of different (Lys-Cys)2 salts. […] After 24-hour cultivation with the dipeptides, the cell viability was assessed using the CellTiter 96® AQueous Non-Radioactive Cell Proliferation Assay (MTS).

Data set [1] deals with human bone marrow stromal cells, mesenchymal stem cells (MSC). As to the kind of experiment: In vitro cytotoxicity / viability assay (MTS) on mesenchymal stem cells. In kind it is cell-based. Conditions: high concentration (tested at 1 and 10 mM), 24 h with dipeptide, samples adjusted to pH 7, vs control medium without (Lys-Cys)2. As to the method:
as §1, §2, §3, §4, §5

Data set [2] can be described thus: Storage stability test of salt forms (HPLC). It counts as physicochemical. As to the method: Storage stability tests at 25° C. and at 60° C. were conducted with the different salt forms of the (Lys-Cys) 2. Stability was measured with a HPLC method.

Take `NCCCC[C@H](N)C(=O)N[C@@H](CSSC[C@H](NC(=O)[C@@H](N)CCCCN)C(=O)O)C(=O)O` [2 HCl form, N,N′-di-L-lysyl-L-cystine dihydrochloride] (I: H-Lys-Cys-OH / II: H-Lys-Cys-OH; disulfide I:2-II:2): the cell viability result (in the data set on CHO-K1 cells; in data set [1]) was “improved cell viability” in each case. Further, the storage stability entry in data set [2] (storage at 25° C. and at 60° C., HPLC, compared with the chloride free, basic form) is “significantly more stable”.
On to `Cl.Cl.Cl.Cl.NCCCC[C@H](N)C(=O)N[C@@H](CSSC[C@H](NC(=O)[C@@H](N)CCCCN)C(=O)O)C(=O)O` [4 HCl form, N,N′-di-L-lysyl-L-cystine tetrahydrochloride] (I: H-Lys-Cys-OH / II: H-Lys-Cys-OH; disulfide I:2-II:2), for which, in the data set with CHO-K1 cells, the cell viability result is listed as “reduced cell viability”. In addition, the storage stability result in data set [2] is on record as “significantly more stable”.
